Measurements: patent publication US20130072506A1, “6,8-DISUBSTITUTED PURINE COMPOSITIONS” (priority 2011, published 2013)

Assays:
[1] = system: mitochondria of ASF-2 cells; assay: JC-1 staining of mitochondria; type: cell-based, human; details: 3 days pre-treatment of dermal fibroblasts
Experimental: All cell culture experiments were performed on early and mid passage cultures (about 20 to 40% lifespan completed) of normal human skin fibroblast line, designated ASF-2. In order to check the effects of test compounds on senescent cells, late passage cells with more than 90% lifespan completed were used. ASF-2 cell line was established from a mammary skin biopsy obtained from a young, non-smoking and healthy […] at the time of breast reduction operation. Normal culture conditions of medium (DMEM) containing antibiotics, 10% foetal calf serum, and incubation at 37° C. with 95% humidity were used. The effects of the test compounds were determined using the following procedures.
Briefly, stock solution of JC-1 (Sigma, M2128) was made at 1 mg/ml in dimethyl sulfoxide. Fresh staining solution […] was prepared by diluting the stock solution in warm (37° C.) culture medium supplemented with 10% calf serum (final conc. 1 μg/ml). Around 3000 cells/ml were seeded in 4 chambered flasks. After three days of incubation, medium is aspirated and one ml of JC-1 staining medium is added, after incubation for 10 mins a cover slip is quickly added and viewed under fluorescent microscope at excitation wavelengths of 488 and 647 nm. […] On depolarization, the orange red punctate staining is replaced by diffuse green monomer fluorescence.

[2] = system: SKH-1 hairless mice; assay: Hairless mouse assay: erythema scoring (skin irritation); type: in vivo; design: key: 0: No response; 1: Very slight redness; 2: Slight redness; 3: Moderate redness/irritation; 4: Severe redness/irritation; 5: Very severe redness/irritation; 6: Necrosis; details: topical, daily, 1 to 3 weeks
From the text: Evaluation of cutaneous effects of new topical compounds in the hirless mouse assay. The purpose of this study was to evaluate new topical compounds for their safety and efficacy as topical skin anti-aging treatments. The hairless mouse model is a well established model for studying the treatments of photoaging. This model has been used to study mechanisms, define effective treatment regimens and assess safety for retinoids and other anti-aging products. The present study was used to investigate a new class of anti-aging compounds in comparison to classical ones. Recent clinical studies have shown that this class of compounds improve the appearance of photodamaged skin and decrease transepidermal water loss (TEWL) without causing skin irritation. This study investigated the mechanisms of how these compounds affect the skin aging process and help to identify new compounds which are safe and effective for preventing and improving the clinical features of photoaged skin. Topical compounds and vehicle controls were be applied daily (Monday-Friday) for 3 weeks to the dorsal skin of hairless mice. At baseline (prior to the 1st treatment), and weekly, the dorsal skin was measured for: transepidermal water loss (TEWL); skin moisture content; and skin elasticity.
Experimental Design. […]
Technical staff recorded erythema scores for all animals each morning. […]

[3] = system: SKH-1 hairless mice; assay: Hairless mouse assay: skin moisture content; type: in vivo; details: course over 3 weeks of topical treatment
From the text: Evaluation of cutaneous effects of new topical compounds in the hirless mouse assay. The purpose of this study was to evaluate new topical compounds for their safety and efficacy as topical skin anti-aging treatments. The hairless mouse model is a well established model for studying the treatments of photoaging. […] The present study was used to investigate a new class of anti-aging compounds in comparison to classical ones. […] Topical compounds and vehicle controls were be applied daily (Monday-Friday) for 3 weeks to the dorsal skin of hairless mice. At baseline (prior to the 1st treatment), and weekly, the dorsal skin was measured for: transepidermal water loss (TEWL); skin moisture content; and skin elasticity.
(§1) Experimental Design. 48 female SKH-1 hairless mice (5 weeks old, 20-25 grams, Charles River Laboratories, Wilmington, Mass.) are individually housed in filter-top cages, and acclimated for 5-7 days after delivery. The mice are divided into 8 treatment groups (n=6), including two different control groups (untreated control, vehicle control) and a therapeutic control (tretinoin 0.05% Renova™ cream). Cage cards are marked to indicate treatment groups 1-8. Water and mouse chow are provided ad libitum.
Skin Moisture Content & Elasticity. The measurements of skin moisture content and skin elasticity are important noninvasive methods used to characterize the effects of moisturizers and anti-wrinkle effects on skin. A DermaLab™ combination instrument were used to measure the skin moisture content and elasticity of the target skin sites at baseline and at weekly intervals. This instrument is equipped with dual probes which are placed on the skin surface and a quantitative measurement taken of the respective parameters and the measurements recorded on an integrated computer. Mean measurements was determined for each treatment group over time, and comparative statistics used to evaluate product effectiveness.
(§2) Topical Treatments. Beginning on Treatment Day 1, test products are applied topically each morning (Monday through Friday) after erythema evaluations for 3 weeks. Using a positive displacement pipette, 20 mg of each agent is applied to a 2 cm×2 cm area of the center midline of the back. The material was spread across the treatment area with the pipette tip.

[4] = system: SKH-1 hairless mice; assay: Hairless mouse assay: epidermal bromodeoxyuridine (BrdU) staining; type: in vivo; details: after 3 weeks of topical treatment
From the text: This study determined the effect of topical compound formulations on epidermal cell proliferation using bromodeoxyuridine as an immunohistochemical marker of cell proliferation. Histological examination of the treated and control skin were used to determine cutaneous effects of the topical compounds. Topical tretinoin 0.05% (Renova™) was used as a therapeutic control.
as §1, §2
Bromodeoxyuridine Injection. All animal groups are injected with bromodeoxyuridine (100 mg/kg) I.P. 4 hours after the final application. Animals are sacrificed by CO2 inhalation 3 hours later followed by cervical dislocation. The test sites are excised, and 6 mm punch biopsies are obtained from each treatment site, and from untreated controls. Biopsies are placed into labeled vials containing 4% neutral buffered formalin for paraffin embedding and anti-BrdU staining.
Bromodeoxyuridine Immunohistochemical Staining. Paraffin sections are cut to a […] thickness and stained using the BrdU Immuno-histochemistry kit (X1545K from Exalpha Biologicals, Inc.) and a standard staining protocol. The slides are weakly counterstained in Mayer's hematoxylin and scored under a light microscope for the number of BrdU-positive cells per mm of epidermis for each section. The data are expressed as mean BrdU-positive cells/mm for each treatment group. Differences in BrdU labeling in the treatment groups are statistically analyzed using the Students t-test. Representative photographs are taken of the histological sections of the BrdU-positive staining cells.

[5] = system: SKH-1 hairless mice; assay: Hairless mouse assay: skin histology and skin compartment measurements; type: in vivo; details: after 3 weeks of treatment
From the text: as §1, §2
Skin Histology. Skin biopsies are taken of each treatment site and untreated control skin. Biopsies are fixed in 4% neutral buffered formalin, embedded in paraffin, and stained with hematoxylin and eosin. The stained skin sections are examined to determine the effects of the treatment on epidermal, dermal, and stratum corneum histology. Biopsies are also microscopically examined for inflammatory cells.
Skin Compartment Measurements. The H&E stained biopsy slides were imaged using a trinocular Olympus BH-2 microscope fitted with a Microfire 2.1×3 Digital Camera. 100× images were digitized and stored on CD using MS Pictureframe and Microfire Software. All compartment images were measured using a calibrated micrometer. An average of three measurements of each compartment for two slide images per biopsy was obtained and tabulated, and means and standard deviations were calculated.

[6] = clinical experience / previous clinical studies; cited from earlier work

Structure (SMILES)	JC-1 staining [1]	Erythema score (Grade) [2]	skin moisture content (skin conductance) [3]	epidermal BrdU staining [4]	skin compartment thickness ([5]; H&E stained biopsies)	histological evaluation of skin biopsies [5]	TEWL [6]
CN[C@@H]1C[C@H]2O[C@@](C)([C@@H]1OC)n1c3ccccc3c3c4c(c5c6ccccc6n2c5c31)C(=O)NC4 [staurosporine, reference compound]	drastically reduced the uptake of JC-1 and J-aggregate formation	–	–	–	–	–	–
CC1=C(/C=C/C(C)=C/C=C/C(C)=C/C(=O)O)C(C)(C)CCC1 [tretinoin]	–	3	significant decrease	no epidermal BrdU staining	increased both epidermal and dermal thickness	marked increased thickness of the epidermis and inflammatory changes in the dermis	increase in TEWL
